The results in this text go back to PubChem BioAssay (NCI).

Some test systems named below: SF-539 CNS; SR leukemia; SW-620 colon; MOLT-4 leukemia; PC-3 prostate; EKVX NSCLC; UO-31 renal; SNB-75 CNS; NCI-H226 lung; MDA-MB-435; SK-MEL-2 melanoma; ACHN renal; A498 renal; DU-145 prostate; COLO 205 colon; M14 melanoma; SK-MEL-5 melanoma; OVCAR-4 ovarian; HCC-2998 colon.
Experiment in all cases: NCI anticancer screen, dose series, 48 h

The structures appear in SMILES notation.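 Where inhibition never reached the appropriate level, the endpoint shown equals the highest concentration tested. Otherwise, values were interpolated linearly from a five-concentration, 48-hour dose response in 96-well plates. TGI denotes the concentration required for complete inhibition of growth.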

Turning to `O=c1[nH]c(=O)n2n1C1C=CC2CC1`, the TGI with SF-539 CNS, in the experiment on SR leukemia, with SW-620 colon, with MOLT-4 leukemia, in the experiment with PC-3 prostate and in the experiment with EKVX NSCLC was above 100 µM in each case. In addition, the TGI in the experiment on UO-31 renal, with SNB-75 CNS, in the experiment on NCI-H226 lung, in the experiment with MDA-MB-435, with SK-MEL-2 melanoma and with ACHN renal was above 100 µM in each case. For the same compound, the TGI with A498 renal, in the experiment with DU-145 prostate, in the experiment with COLO 205 colon, with M14 melanoma and in the experiment with SK-MEL-5 melanoma was above 100 µM in each case.
For `O[C@H]1[C@H](O)[C@@H](Cn2nnc(-c3ccccc3)c2-c2ccccc2)OCO[C@@H]1Cn1nnc(-c2ccccc2)c1-c1ccccc1`, the TGI is 10.8 µM with SF-539 CNS; 46.6 µM with SW-620 colon; above 30.4 µM in the experiment on MOLT-4 leukemia; 8.83 µM with PC-3 prostate; 30.1 µM in the experiment with EKVX NSCLC; 17 µM in the experiment on UO-31 renal. The TGI with SNB-75 CNS was 28.9 µM; in the experiment on NCI-H226 lung it was above 45.4 µM; with MDA-MB-435, 22.8 µM; with SK-MEL-2 melanoma, 9.41 µM; with OVCAR-4 ovarian, 26.9 µM; in the experiment on ACHN renal, 13.6 µM. Also, the TGI is 16 µM in the experiment with A498 renal; 23.2 µM in the experiment with DU-145 prostate; 12.2 µM in the experiment on COLO 205 colon; 6.31 µM in the experiment on HCC-2998 colon; 11.7 µM in the experiment on M14 melanoma; 10.2 µM in the experiment on SK-MEL-5 melanoma.
As to `CC(=O)OC1[C@H](n2ccnc2)C[C@H]2[C@@H]3CC=C4CC(N5CCCC5)CC[C@]4(C)[C@H]3CC[C@]12C` (stereo partly drawn), the TGI in the experiment on SF-539 CNS was 36.8 µM; in the experiment on SR leukemia it was 35.2 µM; in the experiment with SW-620 colon it was above 100 µM; in the experiment on MOLT-4 leukemia, 48.8 µM; in the experiment on PC-3 prostate, above 100 µM; in the experiment with EKVX NSCLC, above 100 µM. For the same compound, the TGI was above 100 µM with UO-31 renal; above 100 µM in the experiment with SNB-75 CNS; above 100 µM with NCI-H226 lung; above 100 µM with MDA-MB-435; 54.7 µM in the experiment with SK-MEL-2 melanoma; above 100 µM with OVCAR-4 ovarian. Also, the TGI is above 100 µM in the experiment on ACHN renal; above 100 µM in the experiment on A498 renal; above 100 µM in the experiment on DU-145 prostate; above 100 µM in the experiment with COLO 205 colon; 61.6 µM with M14 melanoma; above 100 µM in the experiment with SK-MEL-5 melanoma.
Turning to `CC(C)(SCc1ccccc1)C(N)C(=O)O` (stereo not drawn), the TGI in the experiment with SR leukemia, with SW-620 colon, in the experiment with MOLT-4 leukemia, with PC-3 prostate, in the experiment on EKVX NSCLC and in the experiment on UO-31 renal was above 100 µM each time. In addition, the TGI in the experiment on SNB-75 CNS, with NCI-H226 lung, with MDA-MB-435, with SK-MEL-2 melanoma, in the experiment on OVCAR-4 ovarian and in the experiment with ACHN renal was above 100 µM throughout. For the same compound, the TGI in the experiment on A498 renal, in the experiment on DU-145 prostate, in the experiment on M14 melanoma and in the experiment with SK-MEL-5 melanoma was above 100 µM each time.
For `NC(=S)N/N=C1\CCCCC1C(O)(C(F)(F)Cl)C(F)(F)Cl` (stereo not drawn), the TGI in the experiment on SF-539 CNS, with SW-620 colon, in the experiment on MOLT-4 leukemia, in the experiment with PC-3 prostate, with EKVX NSCLC and in the experiment with SNB-75 CNS was above 10 µM each time. For the same compound, the TGI with NCI-H226 lung, in the experiment with MDA-MB-435, in the experiment with SK-MEL-2 melanoma, with OVCAR-4 ovarian, in the experiment with ACHN renal and with A498 renal was above 10 µM throughout. Besides, the TGI with DU-145 prostate, in the experiment with COLO 205 colon, in the experiment on HCC-2998 colon, in the experiment with M14 melanoma and in the experiment on SK-MEL-5 melanoma was above 10 µM throughout.
On to `Cc1nc2ccccc2n1Cc1nnc2n1N=C(c1ccccc1)CS2`, for which the TGI in the experiment with SF-539 CNS was above 100 µM; in the experiment on SW-620 colon it was above 100 µM; in the experiment with MOLT-4 leukemia, above 100 µM; with PC-3 prostate it was 53.6 µM; in the experiment on EKVX NSCLC, above 100 µM; with UO-31 renal, above 100 µM. The TGI with SNB-75 CNS is 59 µM; with NCI-H226 lung it was above 100 µM; with MDA-MB-435 it was above 100 µM; in the experiment on SK-MEL-2 melanoma, 40.7 µM; in the experiment on OVCAR-4 ovarian it was above 100 µM; in the experiment on ACHN renal it was above 100 µM. Moreover, the TGI with A498 renal is above 100 µM; in the experiment on DU-145 prostate, above 100 µM; in the experiment with COLO 205 colon, above 100 µM; in the experiment with HCC-2998 colon it was 68.1 µM; in the experiment on M14 melanoma, above 100 µM; with SK-MEL-5 melanoma, above 100 µM.
For `CCOC(=O)C1=C(C)NC(C)=C(C(=O)OCC)C1c1ccc(C)cc1`, the TGI in the experiment with SF-539 CNS was 91.4 µM; in the experiment on SW-620 colon, above 100 µM; with MOLT-4 leukemia, 74.6 µM; in the experiment with PC-3 prostate, 66 µM; with EKVX NSCLC it was above 100 µM; with UO-31 renal it was above 100 µM. Also, the TGI is above 100 µM in the experiment with SNB-75 CNS; above 100 µM with NCI-H226 lung; above 100 µM in the experiment with MDA-MB-435; 98.4 µM in the experiment on SK-MEL-2 melanoma; above 100 µM in the experiment with OVCAR-4 ovarian; above 100 µM with ACHN renal. For the same compound, the TGI in the experiment with A498 renal was 97.9 µM; in the experiment on DU-145 prostate it was above 100 µM; in the experiment with HCC-2998 colon, above 100 µM; in the experiment on M14 melanoma it was above 100 µM; with SK-MEL-5 melanoma it was 35.3 µM.
As to `C=CCN1C[C@@H](C)N([C@@H](c2ccc(C(=O)N(CC)CC)cc2)c2cccc(OC)c2)C[C@@H]1C`, the TGI in the experiment with SF-539 CNS, in the experiment with SR leukemia, with SW-620 colon, with MOLT-4 leukemia, with PC-3 prostate and in the experiment on EKVX NSCLC was above 100 µM throughout. The TGI with UO-31 renal, with NCI-H226 lung, with MDA-MB-435, in the experiment with SK-MEL-2 melanoma, with OVCAR-4 ovarian and in the experiment on ACHN renal was above 100 µM in each case. The TGI with A498 renal, in the experiment on DU-145 prostate, in the experiment with COLO 205 colon, in the experiment on M14 melanoma and in the experiment with SK-MEL-5 melanoma was above 100 µM each time.
